Measurements as given in US12012374B2, “Agonists of ROR GAMMAt” (BRISTOL-MYERS SQUIBB COMPANY, priority 2019, dated 2024).

Molecular target: T1, human RORgT (Homo sapiens, UniProt P51449)
T1 construct: expressed in transfected cells; host or cells: engineered Jurkat cells (Jurkat pEx/Gal/hRORγ CLBD/HYG pG5luc/blast)
T1 sequence (P51449 267-516): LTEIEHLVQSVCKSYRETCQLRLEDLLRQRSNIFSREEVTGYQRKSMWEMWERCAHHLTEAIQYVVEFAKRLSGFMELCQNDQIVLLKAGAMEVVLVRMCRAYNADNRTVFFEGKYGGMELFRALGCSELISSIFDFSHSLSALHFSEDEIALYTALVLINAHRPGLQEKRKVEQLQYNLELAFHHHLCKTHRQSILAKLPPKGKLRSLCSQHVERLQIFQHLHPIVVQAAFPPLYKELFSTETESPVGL
Assay: RORgT Gal4 Luciferase Reporter Gene Assay
Assay type: cell-based
Settings: engineered Jurkat cells overexpressing RORgT (LBD or full length) fused with Gal4 Luc reporter; 18 hours incubation

Compound | EC50
O=S(=O)(c1cccc(C(F)(F)F)c1)C1(c2ccc(OCc3ccccc3)cc2)CCCC1 [Example 8, 1-(benzyloxy)-4-{1-[3-(trifluoromethyl)benzenesulfonyl]cyclopentyl}benzene] | 382 nM
O=S(=O)(c1ccccc1)C1(c2ccc(OCc3ccccc3F)cc2)CCCC1 [Example 13, 1-[1-(benzenesulfonyl)cyclopentyl]-4-[(2-fluorophenyl)methoxy]benzene] | 203 nM
O=S(=O)(c1ccc(F)cc1)C1(c2ccc(OCc3ccccc3F)cc2)CCCC1 [Example 7, 1-[1-(4-fluorobenzenesulfonyl)cyclopentyl]-4-[(2-fluorophenyl)methoxy]benzene] | 723 nM
O=C(Cc1ccncc1)N1CCC(c2ccc(OCc3ccccc3)cc2)(S(=O)(=O)c2cccc(C(F)(F)F)c2)C1 (stereo not shown) [Example 22, 1-{3-[4-(benzyloxy)phenyl]-3-[3-(trifluoromethyl)benzenesulfonyl]pyrrolidin-1-yl}-2-(pyridin-4-yl)ethan-1-one] | 514 nM
O=S(=O)(c1ccccc1)C1(c2ccc(OCC3CCCCC3)cc2)CCCC1 [Example 10, 1-[1-(benzenesulfonyl)cyclopentyl]-4-(cyclohexylmethoxy)benzene] | 328 nM
O=C(O)[C@H]1CC[C@H](C(=O)N2CC[C@](c3ccc(OCc4c(Cl)cccc4Cl)cc3)(S(=O)(=O)c3ccccc3)C2)CC1 [Example 34, (1r,4r)-4-[(3R)-3-(benzenesulfonyl)-3-{4-[(2,6-dichlorophenyl)methoxy]phenyl}pyrrolidine-1-carbonyl]cyclohexane-1-carboxylic acid] | 275 nM
O=S(=O)(c1ccc(Cl)cc1)C1(c2ccc(OCc3ccccc3)cc2)CCCC1 [Example 9, 1-(benzyloxy)-4-[1-(4-chlorobenzenesulfonyl)cyclopentyl]benzene] | 212 nM
O=S(=O)(c1cccc(Cl)c1)C1(c2ccc(OCc3ccccc3)cc2)CCCC1 [Example 5, 1-(benzyloxy)-4-[1-(3-chlorobenzenesulfonyl)cyclopentyl]benzene] | 240 nM

Further lines, results first:

EC50 | Compound
17 nM | O=C(C1CCS(=O)(=O)CC1)N1CC[C@](c2ccc(OCc3c(Cl)cccc3Cl)cc2)(S(=O)(=O)c2ccc(F)cc2)C1 [Example 36, 4-[(3R)-3-{4-[(2,6-dichlorophenyl)methoxy]phenyl}-3-(4-fluorobenzenesulfonyl)pyrrolidine-1-carbonyl]-1λ^6-thiane-1,1-dione]
28 nM | O=C(C1CCS(=O)(=O)CC1)N1CCC(c2ccc(OCc3c(F)cccc3C(F)(F)F)cc2)(S(=O)(=O)c2ccccc2)C1 (stereo not shown) [Example 30, 4-[3-(benzenesulfonyl)-3-(4-{[2-fluoro-6-(trifluoromethyl)phenyl]methoxy}phenyl)pyrrolidine-1-carbonyl]-1λ^6-thiane-1,1-dione]
195 nM | NC(=O)[C@H]1CC[C@H](C(=O)N2CC[C@](c3ccc(OCc4c(F)cccc4C(F)(F)F)cc3)(S(=O)(=O)c3ccc(F)cc3)C2)CC1 [Example 44, (1r,4r)-4-[(3R)-3-(4-{[2-fluoro-6-(trifluoromethyl)phenyl]methoxy}phenyl)-3-(4-fluorobenzenesulfonyl)pyrrolidine-1-carbonyl]cyclohexane-1-carboxamide]
293 nM | O=C(O)[C@H]1CC[C@H](C(=O)N2CC[C@](c3ccc(OCc4c(Cl)cccc4C(F)(F)F)cc3)(S(=O)(=O)c3ccc(F)cc3)C2)CC1 [Example 47, (1r,4r)-4-[(3R)-3-(4-{[2-chloro-6-(trifluoromethyl)phenyl]methoxy}phenyl)-3-(4-fluorobenzenesulfonyl)pyrrolidine-1-carbonyl]cyclohexane-1-carboxylic acid]
42 nM | O=C(N1CC[C@](c2ccc(OCc3c(Cl)cccc3C(F)(F)F)cc2)(S(=O)(=O)c2ccc(F)cc2)C1)C1(O)CCS(=O)(=O)CC1 [Example 46, 4-[(3R)-3-(4-{[2-chloro-6-(trifluoromethyl)phenyl]methoxy}phenyl)-3-(4-fluorobenzenesulfonyl)pyrrolidine-1-carbonyl]-4-hydroxy-1λ^6-thiane-1,1-dione]
